From the supplement of paper PMC8617591

Key:
[1] = test system: Mycobacterium tuberculosis Erdman (autoluminescent); assay: total FIC50 (Loewe) at 50% inhibition, three-drug combination (log2); higher = more antagonistic
Experimental: (§1)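 DiaMOND equipotent three-drug combination dose responses (10 doses, 1.5- or 2-fold spacing, centred on IC90) against autoluminescent M. tuberculosis Erdman in 8 in vitro models. Read-out is OD600, or luminescence for the intracellular and dormancy models, normalised to untreated wells. Hill-fit Einf, AUC25 and GRinf are potency metrics; FIC50 and FIC90 are total Loewe fractional inhibitory concentrations as log2 (negative = synergy).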

[2] = test system: Mycobacterium tuberculosis Erdman (autoluminescent); assay: AUC25, normalised area under dose response up to IC25 (three-drug combination) (fraction (0-1)); higher = more potent at low dose
Experimental: as §1

[3] = test system: Mycobacterium tuberculosis Erdman (autoluminescent); assay: Einf, fitted maximum growth inhibition of three-drug combination (fraction); higher = stronger maximal inhibition
Experimental: as §1

[4] = test system: Mycobacterium tuberculosis Erdman (autoluminescent); assay: GRinf, maximum normalised growth rate inhibition (three-drug combination) (unitless (-1 to 1)); higher = less effect (negative = killing)
Experimental: as §1

[5] = test system: Mycobacterium tuberculosis Erdman (autoluminescent); assay: total FIC90 (Loewe) at 90% inhibition, three-drug combination (log2); higher = more antagonistic
Experimental: as §1

CC(C)/N=c1\cc2n(-c3ccc(Cl)cc3)c3ccccc3nc-2cc1Nc1ccc(Cl)cc1 [clofazimine] + COc1c(N2C[C@@H]3CCCN[C@@H]3C2)c(F)cc2c(=O)c(C(=O)O)cn(C3CC3)c12 [moxifloxacin] + O=[N+]([O-])c1cn2c(n1)OC[C@@H](OCc1ccc(OC(F)(F)F)cc1)C2 [pretomanid]
Details | AUC25, [2] | Einf, [3] | GRinf, [4] | total FIC50, [1] | total FIC90, [5]
in vitro model: acidic pH 5.7, time point: constant (~7 days, model-specific) | 0.111 | 0.66 | -0.331 | 0.779 | –
in vitro model: acidic pH 5.7, time point: terminal (~4-5 doublings, model-specific) | 0.0647 | 0.93 | -0.186 | 0.34 | 0.287
in vitro model: intracellular J774, time point: constant = terminal | – | 0.981 | -0.328 | – | -0.136

Details | AUC25, [2] | Einf, [3] | GRinf, [4] | total FIC50, [1] | total FIC90, [5]
in vitro model: butyrate, time point: constant (~7 days, model-specific) | 0.114 | 0.945 | -0.41 | 0.567 | 2.06
in vitro model: butyrate, time point: terminal (~4-5 doublings, model-specific) | 0.101 | 0.989 | -0.286 | 0.561 | 1.3
in vitro model: cholesterol 0.05 mM, time point: constant (~7 days, model-specific) | 0.112 | 0.707 | -0.152 | 0.31 | –
in vitro model: cholesterol 0.05 mM, time point: terminal (~4-5 doublings, model-specific) | 0.104 | 0.908 | -0.0989 | 0.933 | 0.0471
in vitro model: cholesterol-high 0.2 mM, time point: constant (~7 days, model-specific) | 0.108 | 0.921 | -0.386 | 0.526 | 2.16
in vitro model: cholesterol-high 0.2 mM, time point: terminal (~4-5 doublings, model-specific) | 0.111 | 1 | -0.905 | 0.181 | 0.651
in vitro model: dormancy (butyrate + nitrate, low O2), time point: constant (~7 days, model-specific) | 0.096 | 0.958 | 0.184 | 0.193 | -0.0601
in vitro model: dormancy (butyrate + nitrate, low O2), time point: terminal (~4-5 doublings, model-specific) | 0.0701 | 0.981 | -0.138 | 0.461 | 0.601
in vitro model: standard 7H9 glycerol, time point: constant = terminal | 0.112 | 0.974 | -0.306 | -0.121 | 0.463
in vitro model: valerate, time point: constant (~7 days, model-specific) | 0.117 | 0.881 | -0.0836 | 0.973 | –
in vitro model: valerate, time point: terminal (~4-5 doublings, model-specific) | 0.0939 | 0.934 | -0.0367 | 0.371 | -0.0804

CC(C)/N=c1\cc2n(-c3ccc(Cl)cc3)c3ccccc3nc-2cc1Nc1ccc(Cl)cc1 [clofazimine] + CC(=O)NC[C@H]1CN(c2ccc(N3CCOCC3)c(F)c2)C(=O)O1 [linezolid] + CO[C@H]1/C=C/O[C@@]2(C)Oc3c(C)c(O)c4c(O)c(c(/C=N/N5CCN(C6CCCC6)CC5)c(O)c4c3C2=O)NC(=O)/C(C)=C\C=C\[C@H](C)[C@H](O)[C@@H](C)[C@@H](O)[C@@H](C)[C@H](OC(C)=O)[C@@H]1C [rifapentine]
Details | AUC25, [2] | Einf, [3] | GRinf, [4] | total FIC50, [1] | total FIC90, [5]
in vitro model: acidic pH 5.7, time point: constant (~7 days, model-specific) | 0.0854 | 0.874 | -0.12 | 0.564 | –
in vitro model: acidic pH 5.7, time point: terminal (~4-5 doublings, model-specific) | 0.0814 | 0.98 | -0.151 | 0.455 | 0.39
in vitro model: intracellular J774, time point: constant = terminal | – | 0.926 | -0.19 | – | -0.239

Details | AUC25, [2] | Einf, [3] | GRinf, [4] | total FIC50, [1] | total FIC90, [5]
in vitro model: butyrate, time point: constant (~7 days, model-specific) | 0.0929 | 0.918 | -0.00889 | 0.328 | 1.2
in vitro model: butyrate, time point: terminal (~4-5 doublings, model-specific) | 0.0457 | 0.943 | 0.0319 | 0.369 | -0.292
in vitro model: cholesterol 0.05 mM, time point: constant (~7 days, model-specific) | 0.126 | 0.731 | -0.0827 | -0.42 | –
in vitro model: cholesterol 0.05 mM, time point: terminal (~4-5 doublings, model-specific) | 0.136 | 0.942 | -0.212 | 0.236 | 0.563
in vitro model: cholesterol-high 0.2 mM, time point: constant (~7 days, model-specific) | 0.114 | 0.928 | -0.916 | 0.312 | 1.27
in vitro model: cholesterol-high 0.2 mM, time point: terminal (~4-5 doublings, model-specific) | 0.124 | 1 | -0.975 | 0.111 | 0.601
in vitro model: dormancy (butyrate + nitrate, low O2), time point: constant (~7 days, model-specific) | 0.0702 | 0.914 | 0.025 | 1.42 | 1.23
in vitro model: dormancy (butyrate + nitrate, low O2), time point: terminal (~4-5 doublings, model-specific) | 0.046 | 0.99 | -0.23 | 1.03 | 0.905
in vitro model: standard 7H9 glycerol, time point: constant = terminal | 0.105 | 0.945 | 0.00644 | 0.0429 | 0.805
in vitro model: valerate, time point: constant (~7 days, model-specific) | 0.113 | 0.883 | -0.112 | 0.974 | –
in vitro model: valerate, time point: terminal (~4-5 doublings, model-specific) | 0.0863 | 0.95 | -0.00893 | 0.608 | 1.24

CC(C)/N=c1\cc2n(-c3ccc(Cl)cc3)c3ccccc3nc-2cc1Nc1ccc(Cl)cc1 [clofazimine] + CC[C@@H](CO)NCCN[C@@H](CC)CO [ethambutol] + CO[C@H]1/C=C/O[C@@]2(C)Oc3c(C)c(O)c4c(O)c(c(/C=N/N5CCN(C)CC5)c(O)c4c3C2=O)NC(=O)/C(C)=C\C=C\[C@H](C)[C@H](O)[C@@H](C)[C@@H](O)[C@@H](C)[C@H](OC(C)=O)[C@@H]1C [rifampicin]
Details | AUC25, [2] | Einf, [3] | GRinf, [4] | total FIC50, [1] | total FIC90, [5]
in vitro model: acidic pH 5.7, time point: constant (~7 days, model-specific) | 0.0857 | 0.88 | -0.0788 | -0.0594 | –
in vitro model: acidic pH 5.7, time point: terminal (~4-5 doublings, model-specific) | 0.0645 | 0.973 | -0.112 | 0.213 | -0.308
in vitro model: intracellular J774, time point: constant = terminal | – | 0.969 | -0.295 | – | -2.37

Details | AUC25, [2] | Einf, [3] | GRinf, [4] | total FIC50, [1] | total FIC90, [5]
in vitro model: butyrate, time point: constant (~7 days, model-specific) | 0.0971 | 0.95 | -0.114 | 0.276 | –
in vitro model: butyrate, time point: terminal (~4-5 doublings, model-specific) | 0.1 | 0.982 | -0.114 | 0.306 | 0.441
in vitro model: cholesterol 0.05 mM, time point: constant (~7 days, model-specific) | 0.126 | 0.684 | -0.277 | – | –
in vitro model: cholesterol 0.05 mM, time point: terminal (~4-5 doublings, model-specific) | 0.0974 | 0.785 | 0.17 | 2.31 | –
in vitro model: cholesterol-high 0.2 mM, time point: constant (~7 days, model-specific) | 0.0508 | 0.93 | -0.277 | 0.891 | –
in vitro model: cholesterol-high 0.2 mM, time point: terminal (~4-5 doublings, model-specific) | 0.0801 | 1 | -0.923 | 1.24 | 1.32
in vitro model: dormancy (butyrate + nitrate, low O2), time point: constant (~7 days, model-specific) | 0.0958 | 0.828 | 0.515 | 0.137 | –
in vitro model: dormancy (butyrate + nitrate, low O2), time point: terminal (~4-5 doublings, model-specific) | 0.0873 | 0.991 | -0.158 | 0.0335 | -0.232
in vitro model: standard 7H9 glycerol, time point: constant = terminal | 0.0958 | 0.922 | 0.048 | -0.0461 | –
in vitro model: valerate, time point: constant (~7 days, model-specific) | 0.0993 | 0.858 | 0.045 | 0.749 | –
in vitro model: valerate, time point: terminal (~4-5 doublings, model-specific) | 0.0696 | 0.929 | 0.036 | 0.485 | -0.638

NNC(=O)c1ccncc1 [isoniazid] + O=[N+]([O-])c1cn2c(n1)OC[C@@H](OCc1ccc(OC(F)(F)F)cc1)C2 [pretomanid] + CO[C@H]1/C=C/O[C@@]2(C)Oc3c(C)c(O)c4c(O)c(c(/C=N/N5CCN(C6CCCC6)CC5)c(O)c4c3C2=O)NC(=O)/C(C)=C\C=C\[C@H](C)[C@H](O)[C@@H](C)[C@@H](O)[C@@H](C)[C@H](OC(C)=O)[C@@H]1C [rifapentine]
Details | AUC25, [2] | Einf, [3] | GRinf, [4] | total FIC50, [1] | total FIC90, [5]
in vitro model: acidic pH 5.7, time point: constant (~7 days, model-specific) | 0.0727 | 0.917 | -0.193 | 4.53 | –
in vitro model: acidic pH 5.7, time point: terminal (~4-5 doublings, model-specific) | 0.0598 | 0.992 | -0.24 | 4.23 | 4.33
in vitro model: intracellular J774, time point: constant = terminal | – | 0.999 | -0.647 | – | 0.264

Details | AUC25, [2] | Einf, [3] | GRinf, [4] | total FIC50, [1] | total FIC90, [5]
in vitro model: butyrate, time point: constant (~7 days, model-specific) | 0.0925 | 0.927 | -0.00998 | 2.86 | 1.02
in vitro model: butyrate, time point: terminal (~4-5 doublings, model-specific) | 0.0727 | 0.966 | 0.00856 | 2.77 | 2.95
in vitro model: cholesterol 0.05 mM, time point: constant (~7 days, model-specific) | 0.0995 | 0.687 | -0.151 | 1.97 | –
in vitro model: cholesterol 0.05 mM, time point: terminal (~4-5 doublings, model-specific) | 0.0863 | 0.914 | -0.223 | 2.05 | 0.57
in vitro model: cholesterol-high 0.2 mM, time point: constant (~7 days, model-specific) | 0.0548 | 0.808 | -0.0225 | 0.663 | –
in vitro model: cholesterol-high 0.2 mM, time point: terminal (~4-5 doublings, model-specific) | 0.0663 | 0.994 | -0.46 | 0.773 | 0.83
in vitro model: dormancy (butyrate + nitrate, low O2), time point: constant (~7 days, model-specific) | 0.0593 | 0.871 | 0.27 | 2.68 | 2.64
in vitro model: dormancy (butyrate + nitrate, low O2), time point: terminal (~4-5 doublings, model-specific) | 0.0428 | 0.978 | -0.11 | 2.7 | 2.66
in vitro model: standard 7H9 glycerol, time point: constant = terminal | 0.0426 | 0.884 | 0.179 | 4.92 | –
in vitro model: valerate, time point: constant (~7 days, model-specific) | 0.102 | 0.894 | -0.014 | 2.74 | –
in vitro model: valerate, time point: terminal (~4-5 doublings, model-specific) | 0.0549 | 0.938 | -0.167 | 3.29 | 2.95
